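Step 1: Grow cells in 96-well plates. Step 2: Expose to compound for 48 hours at 5 concentrations. Step 3: Interpolate endpoints linearly; if unreached, use highest concentration. GI50 marks 50% less growth. TGI denotes the concentration required for complete inhibition of growth.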
Experiments:
Assay in all cases: growth of human tumour cells (NCI), 48 h
786-0 renal = test system: 786-0 renal
A498 renal = test system: A498 renal
A549 NSCLC = test system: A549 NSCLC
ACHN renal = test system: ACHN renal
BT-549 breast = test system: BT-549 breast
CAKI-1 renal = test system: CAKI-1 renal
CCRF-CEM leukemia = test system: CCRF-CEM leukemia
COLO 205 colon = test system: COLO 205 colon
DU-145 prostate = test system: DU-145 prostate
HCC-2998 colon = test system: HCC-2998 colon
HCT-116 colon = test system: HCT-116 colon
HCT-15 colon = test system: HCT-15 colon
HL-60(TB) leukemia = test system: HL-60(TB) leukemia
HOP-62 NSCLC = test system: HOP-62 NSCLC
HOP-92 NSCLC = test system: HOP-92 NSCLC
HS 578T breast = test system: HS 578T breast
HT29 colon = test system: HT29 colon
IGROV1 ovarian = test system: IGROV1 ovarian
K-562 leukemia = test system: K-562 leukemia
KM12 colon = test system: KM12 colon
LOX IMVI melanoma = test system: LOX IMVI melanoma
M14 melanoma = test system: M14 melanoma
MALME-3M melanoma = test system: MALME-3M melanoma
MCF7 breast = test system: MCF7 breast
MDA-MB-231 breast = test system: MDA-MB-231 breast
MDA-MB-435 = test system: MDA-MB-435
MOLT-4 leukemia = test system: MOLT-4 leukemia
NCI-H226 lung = test system: NCI-H226 lung
NCI-H23 lung = test system: NCI-H23 lung
NCI-H460 lung = test system: NCI-H460 lung
NCI-H522 lung = test system: NCI-H522 lung
NCI/ADR-RES ovarian = test system: NCI/ADR-RES ovarian
OVCAR-4 ovarian = test system: OVCAR-4 ovarian
OVCAR-5 ovarian = test system: OVCAR-5 ovarian
OVCAR-8 ovarian = test system: OVCAR-8 ovarian
PC-3 prostate = test system: PC-3 prostate
RPMI-8226 leukemia = test system: RPMI-8226 leukemia
RXF 393 renal = test system: RXF 393 renal
SF-268 CNS = test system: SF-268 CNS
SF-295 CNS = test system: SF-295 CNS
SF-539 CNS = test system: SF-539 CNS
SK-MEL-2 melanoma = test system: SK-MEL-2 melanoma
SK-MEL-28 melanoma = test system: SK-MEL-28 melanoma
SK-MEL-5 melanoma = test system: SK-MEL-5 melanoma
SK-OV-3 ovarian = test system: SK-OV-3 ovarian
SN12C renal = test system: SN12C renal
SNB-19 CNS = test system: SNB-19 CNS
SNB-75 CNS = test system: SNB-75 CNS
SR leukemia = test system: SR leukemia
SW-620 colon = test system: SW-620 colon
T-47D breast = test system: T-47D breast
TK-10 renal = test system: TK-10 renal
U251 CNS = test system: U251 CNS
UACC-257 melanoma = test system: UACC-257 melanoma
UACC-62 melanoma = test system: UACC-62 melanoma
UO-31 renal = test system: UO-31 renal

For `COc1ccc(-c2nn(-c3cccc(NC(=O)c4cccc(C(F)(F)F)c4)c3)cc2-c2ccncc2)cc1Cl`, the GI50 (786-0 renal) was 2.91 µM, the TGI (786-0 renal) was 27.5 µM and the GI50 (A498 renal) was 1.03 µM. It also gave a TGI (A498 renal) of 4.68 µM, a GI50 (A549 NSCLC) of 2.7 µM and a TGI (A549 NSCLC) of over 100 µM. It also gave a GI50 (ACHN renal) of 4.4 µM, a TGI (ACHN renal) of over 100 µM and a GI50 (BT-549 breast) of 3.14 µM. For the same compound, the TGI (BT-549 breast) was over 100 µM, the GI50 (CAKI-1 renal) was 2.57 µM and the TGI (CAKI-1 renal) was over 100 µM. For the same compound, the GI50 (CCRF-CEM leukemia) was 1.9 µM, the TGI (CCRF-CEM leukemia) was over 100 µM and the GI50 (COLO 205 colon) was 1.77 µM. It also gave a TGI (COLO 205 colon) of 3.53 µM, a GI50 (DU-145 prostate) of 4.36 µM and a TGI (DU-145 prostate) of over 100 µM. The GI50 (HCC-2998 colon) was 3.29 µM, the TGI (HCC-2998 colon) was 17 µM and the GI50 (HCT-116 colon) was 3.05 µM. It also gave a TGI (HCT-116 colon) of over 100 µM, a GI50 (HCT-15 colon) of 2 µM and a TGI (HCT-15 colon) of over 100 µM. For the same compound, the GI50 (HL-60(TB) leukemia) was 2.96 µM, the TGI (HL-60(TB) leukemia) was 8.64 µM and the GI50 (HOP-62 NSCLC) was 3.07 µM. It also gave a TGI (HOP-62 NSCLC) of over 100 µM, a GI50 (HOP-92 NSCLC) of 1 µM and a TGI (HOP-92 NSCLC) of 6.54 µM. The GI50 (HS 578T breast) was 1.54 µM, the TGI (HS 578T breast) was 8.74 µM and the GI50 (HT29 colon) was 2.92 µM. The TGI (HT29 colon) was 27.7 µM, the GI50 (IGROV1 ovarian) was 7.06 µM and the TGI (IGROV1 ovarian) was over 100 µM. For the same compound, the GI50 (K-562 leukemia) was 0.837 µM, the TGI (K-562 leukemia) was over 100 µM and the GI50 (KM12 colon) was 1.35 µM. It also gave a TGI (KM12 colon) of 9.7 µM, a GI50 (LOX IMVI melanoma) of 3.08 µM and a TGI (LOX IMVI melanoma) of 27.2 µM. For the same compound, the GI50 (M14 melanoma) was 2.23 µM, the TGI (M14 melanoma) was 25.3 µM and the GI50 (MALME-3M melanoma) was 1.46 µM. The TGI (MALME-3M melanoma) was over 100 µM, the GI50 (MCF7 breast) was 1.81 µM and the TGI (MCF7 breast) was 24.8 µM. It also gave a GI50 (MDA-MB-231 breast) of 1.77 µM, a TGI (MDA-MB-231 breast) of 16.1 µM and a GI50 (MDA-MB-435) of 0.343 µM. It also gave a TGI (MDA-MB-435) of 2.03 µM, a GI50 (MOLT-4 leukemia) of 2.62 µM and a TGI (MOLT-4 leukemia) of over 100 µM. It also gave a GI50 (NCI-H226 lung) of 4.92 µM, a TGI (NCI-H226 lung) of over 100 µM and a GI50 (NCI-H23 lung) of 3.58 µM. It also gave a TGI (NCI-H23 lung) of 92.8 µM, a GI50 (NCI-H460 lung) of 2.95 µM and a TGI (NCI-H460 lung) of over 100 µM. It also gave a GI50 (NCI-H522 lung) of 0.475 µM, a TGI (NCI-H522 lung) of 3.55 µM and a GI50 (NCI/ADR-RES ovarian) of 1.75 µM. It also gave a TGI (NCI/ADR-RES ovarian) of 14 µM, a GI50 (OVCAR-4 ovarian) of 6.24 µM and a TGI (OVCAR-4 ovarian) of over 100 µM. For the same compound, the GI50 (OVCAR-5 ovarian) was 12.2 µM, the TGI (OVCAR-5 ovarian) was over 100 µM and the GI50 (OVCAR-8 ovarian) was 3.34 µM. For the same compound, the TGI (OVCAR-8 ovarian) was over 100 µM, the GI50 (PC-3 prostate) was 1.98 µM and the TGI (PC-3 prostate) was over 100 µM. For the same compound, the GI50 (RPMI-8226 leukemia) was 2.5 µM, the TGI (RPMI-8226 leukemia) was 49 µM and the GI50 (RXF 393 renal) was 1.46 µM. For the same compound, the TGI (RXF 393 renal) was 7.78 µM, the GI50 (SF-268 CNS) was 4.08 µM and the TGI (SF-268 CNS) was over 100 µM. The GI50 (SF-295 CNS) was 2.37 µM, the TGI (SF-295 CNS) was 9.91 µM and the GI50 (SF-539 CNS) was 1.77 µM. It also gave a TGI (SF-539 CNS) of 6.01 µM, a GI50 (SK-MEL-2 melanoma) of 3 µM and a TGI (SK-MEL-2 melanoma) of 13.2 µM. The GI50 (SK-MEL-28 melanoma) was 3.07 µM, the TGI (SK-MEL-28 melanoma) was 36 µM and the GI50 (SK-MEL-5 melanoma) was 1.06 µM. It also gave a TGI (SK-MEL-5 melanoma) of 4.4 µM, a GI50 (SK-OV-3 ovarian) of 3.91 µM and a TGI (SK-OV-3 ovarian) of over 100 µM. The GI50 (SN12C renal) was 5.06 µM, the TGI (SN12C renal) was over 100 µM and the GI50 (SNB-19 CNS) was 5.7 µM. It also gave a TGI (SNB-19 CNS) of over 100 µM, a GI50 (SNB-75 CNS) of 1.17 µM and a TGI (SNB-75 CNS) of 4.07 µM. For the same compound, the GI50 (SR leukemia) was 0.605 µM, the TGI (SR leukemia) was 5.44 µM and the GI50 (SW-620 colon) was 4.07 µM. It also gave a TGI (SW-620 colon) of over 100 µM, a GI50 (T-47D breast) of 2.56 µM and a TGI (T-47D breast) of over 100 µM. For the same compound, the GI50 (TK-10 renal) was 6.77 µM, the TGI (TK-10 renal) was over 100 µM and the GI50 (U251 CNS) was 1.8 µM. It also gave a TGI (U251 CNS) of 17.6 µM, a GI50 (UACC-257 melanoma) of 6.67 µM and a TGI (UACC-257 melanoma) of 61.7 µM. It also gave a GI50 (UACC-62 melanoma) of 2.27 µM, a TGI (UACC-62 melanoma) of 24 µM and a GI50 (UO-31 renal) of 2.85 µM. The TGI (UO-31 renal) was over 100 µM.

Reference: PubChem BioAssay (NCI)
